Source: article PMC7357490, “Ancestral Resurrection and Directed Evolution of Fungal Mesozoic Laccases” (Applied and Environmental Microbiology, 2020)
Read-outs that look alike come from different tables or passages of the source.

What was measured:
LacAnc98 [1] = conditions: read-out: LacAnc98; room temperature; 100 mM sodium phosphate/citrate pH 4.0; air O2 as co-substrate
LacAnc100 [2] = conditions: read-out: LacAnc100; room temperature; 100 mM sodium phosphate/citrate pH 4.0; air O2 as co-substrate
LacAnc100 [3] = test: spectrophotometric steady-state kinetics, […] nm; type: biochemical, synthetic construct; conditions: room temperature; 100 mM sodium phosphate/citrate pH 5.0; air O2 as co-substrate
OB-1 [4] = target: T1, OB-1 (basidiomycete PM1, UniProt Q12571, V183A/H229Y/S245G/A260P/D302E/S447N/A482T, form not given); test: spectrophotometric steady-state kinetics, […] nm; type: biochemical; conditions: room temperature; 100 mM sodium phosphate/citrate pH 5.0; air O2 as co-substrate
T1 construct: N-terminal extension from leader processing (EAEA site) possible

LacAnc98 [5] = test: spectrophotometric steady-state kinetics, […] nm; type: biochemical, synthetic construct; conditions: room temperature; 100 mM sodium phosphate/citrate pH 5.0; air O2 as co-substrate
LacAnc100 [6] = test: spectrophotometric steady-state kinetics, […] nm; type: biochemical, synthetic construct; conditions: room temperature; 100 mM sodium phosphate/citrate pH 5.0; air O2 as co-substrate; remark: listed apart in the source
LacAnc98 [7] = test: spectrophotometric steady-state kinetics, […] nm; type: biochemical, synthetic construct; conditions: room temperature; 100 mM sodium phosphate/citrate pH 5.0; air O2 as co-substrate; remark: listed apart in the source
OB-1 [8] = target: T1, OB-1; test: spectrophotometric steady-state kinetics, […] nm; type: biochemical; conditions: room temperature; 100 mM sodium phosphate/citrate pH 5.0; air O2 as co-substrate; remark: listed apart in the source
LacAnc98 [9] = test: spectrophotometric steady-state kinetics, […] nm; type: biochemical, synthetic construct; conditions: room temperature; 100 mM sodium phosphate/citrate pH 5.0; air O2 as co-substrate; remark: listed apart in the source
LacAnc100 [10] = test: spectrophotometric steady-state kinetics, […] nm; type: biochemical, synthetic construct; conditions: room temperature; 100 mM sodium phosphate/citrate pH 5.0; air O2 as co-substrate; remark: listed apart in the source
OB-1 [11] = target: T1, OB-1; test: spectrophotometric steady-state kinetics, […] nm; type: biochemical; conditions: room temperature; 100 mM sodium phosphate/citrate pH 5.0; air O2 as co-substrate; remark: listed apart in the source

T1 sequence (Q12571 entry or part of it V183A/H229Y/S245G/A260P/D302E/S447N/A482T, form open): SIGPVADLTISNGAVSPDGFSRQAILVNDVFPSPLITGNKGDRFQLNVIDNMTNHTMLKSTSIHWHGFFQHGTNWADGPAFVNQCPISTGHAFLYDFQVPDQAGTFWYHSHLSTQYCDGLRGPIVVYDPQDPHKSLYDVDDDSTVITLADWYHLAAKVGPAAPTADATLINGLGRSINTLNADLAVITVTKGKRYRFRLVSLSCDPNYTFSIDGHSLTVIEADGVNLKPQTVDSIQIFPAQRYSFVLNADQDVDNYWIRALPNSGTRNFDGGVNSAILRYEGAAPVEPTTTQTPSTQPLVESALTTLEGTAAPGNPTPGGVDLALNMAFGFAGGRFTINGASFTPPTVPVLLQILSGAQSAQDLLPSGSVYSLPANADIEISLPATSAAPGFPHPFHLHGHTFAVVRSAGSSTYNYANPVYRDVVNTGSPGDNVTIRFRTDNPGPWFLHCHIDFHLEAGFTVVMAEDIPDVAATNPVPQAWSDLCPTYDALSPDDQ

## CCn1c(=NN=c2sc3cc(S(=O)(=O)O)ccc3n2CC)sc2cc(S(=O)(=O)O)ccc21 [ABTS]
LacAnc98 [1]
  Km: 69 ± 2 µM
LacAnc100 [2]
  Km: 60 ± 1 µM

## COc1cccc(OC)c1O [DMP]
LacAnc100 [3]
  Km: 500 ± 20 µM
OB-1 [4]
  Km: 150 ± 10 µM
LacAnc98 [5]
  Km: 420 ± 20 µM

## COc1ccccc1O [Guaiacol]
LacAnc100 [6]
  Km: 6700 ± 700 µM
LacAnc98 [7]
  Km: 8700 ± 300 µM
OB-1 [8]
  Km: 2600 ± 400 µM

## COc1cc(/C=C/C(=O)O)cc(OC)c1O [Sinapic acid]
LacAnc98 [9]
  Km: 230 ± 40 µM
LacAnc100 [10]
  Km: 330 ± 70 µM
OB-1 [11]
  Km: 320 ± 20 µM
